Values after ≈ are worked out from the molar mass of the structure shown. Like-named read-outs stand apart in the source and are kept apart here.
Columns and labels:
EfaUPPS (L91A) = target: T1, EfaUPPS (L91A) (Enterococcus faecalis, UniProt Q831K9, L97A); test: Microscale thermophoresis binding assay, EfaUPPS L91A; details: MST, no binding
T1 construct: His tag; made in house; host or cells: E. coli BL21(DE3)
Method: (§1) To characterize the binding affinity between EfaUPPS and GA or NGA, the MST binding assay was performed as previously described ([Lin et al., 2020]). In brief, His-tagged EfaUPPS and site-directed mutated EfaUPPS were labeled with the NT- 647-NHS dye using the Monolith NTTM Protein Labeling Kit RED-NHS (NanoTemper Technologies). Two-fold serially diluted GA or NGA was mixed with 10 nM of labeled EfaUPPS or its derivatives in 10 μl of binding buffer (137 mM NaCl, 2.7 mM KCl, 10 mM Na2HPO4, 1.8 mM KH2PO4, and 0.05% Tween-20, pH 7.8), incubated for 15 min, at room temperature. And then, loaded the mixtures into NT.115 premium coated capillaries (NanoTemper Technologies). MST trace signals were collected from the IR laser on to off for about 20 s, under the 5% LED power and high MST power mode. The change of molecular thermophoresis was monitored by standardized fluorescence value Fnorm, and the binding curve was plotted according to the values of Fnorm. The formed complex affinity was analyzed by MO Affinity Analysis software version 2.3. Apparent dissociation constants (Kd) were calculated using nonlinear fitting assuming one specific binding site with the GraphPad Prism 7 software with the following formula: Y = B^∗Max X/KD + X.
(§2) (^∗ where BMax is the maximum theoretical specific binding; here BMax = 1).

WT EfaUPPS = target: T2, WT EfaUPPS (Enterococcus faecalis, UniProt Q831K9); test: Microscale thermophoresis binding assay, wild-type EfaUPPS
T2 construct: His tag; made in house; host or cells: E. coli BL21(DE3)
Method: as §1, §2

EfaUPPS = target: T3, EfaUPPS (Enterococcus faecalis, UniProt Q831K9); test: Compound/substrate-UPPS binding competition experiment; format: biochemical; details: 0-20 μM FPP, 1/2/5 μM compound
T3 construct: His tag; made in house; host or cells: E. coli BL21(DE3)
Method: The compound/substrate-UPPS binding competition experiment was performed as the above descriptions. The difference is that the reaction buffer containing 35 μM IPP, different concentrations of FPP ranged from 0–20 μM, and in the presence of 0/1/2/5 μM GA/NGA, respectively. Data were plotted with competitive inhibition model using GraphPad Prism7.

EfaUPPS (R42A) [1] = target: T4, EfaUPPS (R42A) (Enterococcus faecalis, UniProt Q831K9, R48A); test: Microscale thermophoresis binding assay, EfaUPPS R42A
T4 construct: His tag; made in house; host or cells: E. coli BL21(DE3)
Method: as §1, §2

EfaUPPS (L146A) [2] = target: T5, EfaUPPS (L146A) (Enterococcus faecalis, UniProt Q831K9, L152A); test: UPPS inhibition assay, EfaUPPS L146A mutant; format: biochemical; details: for effect of mutation on inhibitory effect of compound on EfaUPPS enzyme activity: L146A mutant compared with wild-type; for IC50 fold higher than that of the wild-type: L146A mutant vs wild-type (~3 μM)
T5 construct: His tag; made in house; host or cells: E. coli BL21(DE3)
Method: (§3) The EfaUPPS site-directed mutagenesis was generated using QuikChange site-directed mutagenesis kit (Agilent) according to the manufacturer’s instructions. The purification of site-directed mutation was using a similar strategy as described above.
(§4) The UPPS inhibition assay was carried out by measuring the fluorescence of the reaction mixture in a black 96-well microtiter plate (Corning, United States). […] After the indicated incubation period, the reaction was terminated by the addition of 10 μl of 0.5 M EDTA solution. Transferred 50 μl of the reaction mixture into a new 96-well microtiter plate, and quenched with an equal volume of Master Reaction Mix (Pyrophosphate Assay Kit, Sigma-Aldrich, USA) for 30 min. The UPPS inhibitory activity was performed by calculating the fluorescence percentage through determining the fluorescence absorbance of reaction mixture at 316 and 456 nm. Data of UPPS inhibitory activities were plotted versus compound concentrations on a semi-log scale using GraphPad Prism7. All the results were the means of at least three biological replicates.

E. faecalis infection = test: E. faecalis infected mouse model; format: in vivo, C57BL/6 J mice; details: oral dose (40 μM), 19 days
Method: All animal studies had been reviewed and approved by the Animal Ethical and Welfare Committee of Nanjing University of Chinese Medicine. 8-week-old male C57BL/6 J mice were housed in groups of four mice per cage in a 12/12-h day light cycle with free access to food and water under conditions of controlled humidity (50 ± 5%) and temperature (22 ± 2°C). Mice were adaptively raised for a week before experiments. To explore the effects of GA and NGA on E. faecalis, the mice were randomly divided into four groups including control, E. faecalis, E. faecalis + GA and E. faecalis + NGA. Mice received an oral dose (40 μM) of GA or NGA from 30 min after E. faecalis (1 × 10^10 CFU) treatment for 19 days to sacrifice. The body weight of the mice was monitored daily. Afterwards mice spleens were collected and spleen weight was measured upon being sacrificed.
Spleen tissue sections of mice were fixed in 4% paraformaldehyde, dehydrated in alcohol, embedded in paraffin and then sliced into thin 5 μm sections. The tissues were then stained with hematoxylin & eosin (H&E). The tissue images were observed under an inverted microscope (Vectra 3.0, PerkinElmer, United States).
Retro-orbital blood was collected from the mice in asepsis tubes before dissection. The blood was centrifuged at 3500 g for 20 min to extract serum, which was stored at −20°C awaiting subsequent analyses. TNF-α-levels in serum was measured by ELISA according to the instructions of the manufacturer (eBioscience, United States).
Total RNA was extracted from the spleen of mice, and then the cDNA was synthesized with HiScript® II Q RT SuperMix for qPCR (Vazyme, China). qPCR was performed using the LightCycler®96 (Roche, Swiss). The qPCR primers of TNF-α (Forward: 5’-[…]-3′ and Reverse: 5’-[…]-3′) were designed and synthesized by GENERAY Biotechnology (Shanghai, China). GAPDH was used as the reference gene.

MRSA = test: MIC, microtiter broth dilution; format: cell-based, Staphylococcus aureus; details: Staphylococcus aureus, MRSA, 18 h
Method: Antibacterial activities were performed by examining the minimal inhibitory concentrations (MICs), which was determined by a microtiter broth dilution method as previously described ([Cotsonas King and Wu, 2009]), with minor modifications. Briefly, 96-well plates (Corning) were inoculated with 100 μl of LB broth per well containing 7 × 10^5 CFU/mL bacteria, followed by adding 100 μl of LB broth containing two-fold serial dilutions of the test compounds. […] After 18 h of incubation, the MIC was determined to be the lowest concentration without visible bacterial growth. The results were the averages of at least three biological replicates.

EfaUPPS (L146A) [3] = target: T5, EfaUPPS (L146A); test: Microscale thermophoresis binding assay, EfaUPPS L146A; details: MST, no binding
Method: as §1, §2

EfaUPPS (R42A) [4] = target: T4, EfaUPPS (R42A); test: UPPS inhibition assay, EfaUPPS R42A mutant; format: biochemical; details: for effect of mutation on inhibitory effect of compound on EfaUPPS enzyme activity: R42A mutant compared with wild-type
Method: as §3, §4

T2 sequence (Q831K9 whole entry): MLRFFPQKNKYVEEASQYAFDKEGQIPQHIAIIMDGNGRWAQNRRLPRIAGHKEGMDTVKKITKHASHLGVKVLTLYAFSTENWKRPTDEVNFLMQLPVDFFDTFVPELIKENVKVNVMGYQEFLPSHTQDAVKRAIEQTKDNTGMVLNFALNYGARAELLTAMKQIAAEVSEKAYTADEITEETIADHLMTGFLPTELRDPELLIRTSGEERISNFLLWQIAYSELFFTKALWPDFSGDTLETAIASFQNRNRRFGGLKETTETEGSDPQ
T4 sequence (Q831K9 whole entry R48A): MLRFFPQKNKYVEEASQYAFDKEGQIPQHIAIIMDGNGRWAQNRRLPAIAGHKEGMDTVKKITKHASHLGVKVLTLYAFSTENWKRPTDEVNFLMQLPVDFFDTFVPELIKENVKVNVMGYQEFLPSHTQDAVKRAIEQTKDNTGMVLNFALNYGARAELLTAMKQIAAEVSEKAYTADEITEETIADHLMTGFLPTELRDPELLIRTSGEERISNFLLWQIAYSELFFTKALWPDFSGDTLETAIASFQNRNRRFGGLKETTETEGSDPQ
T5 sequence (Q831K9 whole entry L152A): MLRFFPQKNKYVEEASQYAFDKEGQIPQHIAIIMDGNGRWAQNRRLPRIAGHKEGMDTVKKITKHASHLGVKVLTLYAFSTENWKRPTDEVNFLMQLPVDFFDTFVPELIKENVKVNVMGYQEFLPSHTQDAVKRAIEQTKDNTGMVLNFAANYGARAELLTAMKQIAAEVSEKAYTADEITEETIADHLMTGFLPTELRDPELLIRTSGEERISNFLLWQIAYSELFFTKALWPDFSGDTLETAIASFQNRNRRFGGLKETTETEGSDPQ
T3 sequence (Q831K9 whole entry): as the sequence (Q831K9 whole entry) above
T1 sequence (Q831K9 whole entry L97A): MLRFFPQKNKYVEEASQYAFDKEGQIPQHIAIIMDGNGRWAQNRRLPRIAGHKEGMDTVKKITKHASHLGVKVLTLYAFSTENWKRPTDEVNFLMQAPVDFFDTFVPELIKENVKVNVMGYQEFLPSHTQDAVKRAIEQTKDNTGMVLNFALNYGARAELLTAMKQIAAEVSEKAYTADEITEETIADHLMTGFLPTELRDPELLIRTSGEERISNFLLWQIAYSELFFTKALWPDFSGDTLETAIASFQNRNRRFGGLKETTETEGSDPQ

| SMILES | Kd (EfaUPPS (L91A)) [µM] | Kd (WT EfaUPPS; MST, WT EfaUPPS, read-out: Kd) [µM] | competition with FPP for binding to EfaUPPS (EfaUPPS) | Kd (EfaUPPS (R42A) [1]) [µM] | IC50 (EfaUPPS (L146A) [2]) [µM] | effect of mutation on inhibitory effect of compound on EfaUPPS enzyme activity (EfaUPPS (L146A) [2]) | IC50 fold higher than that of the wild-type (EfaUPPS (L146A) [2]) | body weight of E. faecalis infection mice (E. faecalis infection) | spleen inflammation (H&E spleen slides) (E. faecalis infection) | splenomegaly (spleen weight) (E. faecalis infection) | MIC (MRSA; LB broth, read-out: MIC) [µg/mL] | Kd (EfaUPPS (L146A) [3]) [µM] | IC50 (EfaUPPS (R42A) [4]) [µM] | effect of mutation on inhibitory effect of compound on EfaUPPS enzyme activity (EfaUPPS (R42A) [4]) | Kd (WT EfaUPPS) [µM] | Kd fold lower than that for GA (WT EfaUPPS; WT EfaUPPS, NGA vs GA) | Kd fold higher than that of the wild-type (EfaUPPS (R42A) [1]; R42A vs wild-type) | TNF-α mRNA in spleen (qPCR) (E. faecalis infection) | TNF-α-levels in serum (ELISA) (E. faecalis infection; vs E. faecalis group) | MIC (MRSA) [µg/mL] |
| --- | --- | --- | --- | --- | --- | --- | --- | --- | --- | --- | --- | --- | --- | --- | --- | --- | --- | --- | --- | --- |
| CC(C)=CCC[C@]1(C)C=Cc2c(O)c3c(c(CC=C(C)C)c2O1)O[C@]12C(=C[C@@H]4C[C@H]1C(C)(C)O[C@@]2(C/C=C(/C)C(=O)O)C4=O)C3=O [GA, gambogic acid] | > 50000 | 29 ± 8.03 | compete with FPP | 40.5 ± 17.2 | ~30 | significantly decreased | about 10 fold | no observable effect | reduced signs of inflammation | significantly relieved splenomegaly | 4 (≈ 6.36 µM) | > 50000 | 5.39 | does not have significant impact |  |  |  |  |  |  |
| CC(C)=CCC[C@]1(C)CC(O)c2c(O)c3c(c(CC=C(C)C)c2O1)O[C@]12C(=C[C@@H]4C[C@H]1C(C)(C)O[C@@]2(C/C=C(/C)C(=O)O)C4=O)C3=O (stereo partly shown) [NGA, neogambogic acid] | > 50000 |  | compete with FPP | 62.9 ± 25.4 | ~30 | significantly reduced | about 10 fold | no observable effect | reduced signs of inflammation | significantly relieved splenomegaly |  | > 50000 |  | significantly reduced | 5.61 ± 2.16 | about 5 fold | about 10 fold | significant downregulation | significantly reduced | 4 (≈ 6.18 µM) |

Source: publication PMC9791066, “Investigations into the antibacterial effects and potential mechanism of gambogic acid and neogambogic acid” (Frontiers in Microbiology, 2022)
